Measured values as given in DBAASP.
≈ marks a conversion by molar mass, not a printed value.

Legend:
Test in all cases: ≥ marks a high value that may be exact or a test limit, other limits are often not marked, values filed in µg/mL are converted to µM
[1] = system: Escherichia coli ATCC 25922
[2] = system: Pseudomonas aeruginosa ATCC 9027
[3] = system: Staphylococcus aureus ATCC 25923
[4] = system: Candida albicans ATCC 10231
[5] = system: Enterococcus faecalis PCM 2673
[6] = system: Acinetobacter baumannii CCARM 12035
[7] = system: Pseudomonas aeruginosa KCTC 1637
[8] = system: Bacillus subtilis KCTC 3068
[9] = system: Escherichia coli CCARM 1229
[10] = system: Salmonella typhimurium KCTC 1926
[11] = system: Enterococcus faecalis KCTC 2011
[12] = system: Pseudomonas aeruginosa CCARM 2095
[13] = system: Staphylococcus aureus KCTC 1621
[14] = system: Salmonella typhimurium CCARM 8009
[15] = system: Escherichia coli KCTC 1682
[16] = system: Batrachochytrium dendrobatidis

| SMILES | MIC [1] | MIC [2] | MIC [3] | MIC [4] | MIC [5] | MIC [6] | MIC [7] | MIC [8] | MIC [9] | MIC [10] | MIC [11] | MIC [12] | MIC [13] | MIC [14] | MIC [15] | MIC [16] |
| --- | --- | --- | --- | --- | --- | --- | --- | --- | --- | --- | --- | --- | --- | --- | --- | --- |
| CC[C@H](C)[C@H](NC(=O)[C@H](C)NC(=O)[C@H](Cc1ccccc1)NC(=O)[C@H](CC(C)C)NC(=O)CN)C(=O)N[C@H](C(=O)N[C@@H](CCCCN)C(=O)N[C@@H](CCCCN)C(=O)N[C@H](C(=O)N[C@@H](C)C(=O)N[C@@H](CCC(=O)O)C(=O)N[C@@H](CO)C(=O)N[C@@H](Cc1ccccc1)C(N)=O)[C@@H](C)CC)[C@@H](C)CC [GLFAIIKKIAESF] | 5.57 µM (≈ 7.99 µg/mL) | 44.5 µM (≈ 64 µg/mL) | 11.1 µM (≈ 16 µg/mL) | 44.5 µM (≈ 64 µg/mL) | 22.3 µM (≈ 32 µg/mL) | – | – | – | – | – | – | – | – | – | – | – |
| CC[C@H](C)[C@H](NC(=O)CNC(=O)[C@H](CC(=O)O)NC(=O)[C@H](CCCN=C(N)N)NC(=O)[C@@H](NC(=O)[C@H](CC(N)=O)NC(=O)[C@H](CCCN=C(N)N)NC(=O)CNC(=O)[C@@H](NC(=O)[C@H](CCCCN)NC(=O)[C@H](CCC(=O)O)NC(=O)[C@@H](NC(=O)[C@H](CCCCN)NC(=O)[C@H](CCCCN)NC(=O)[C@H](Cc1c[nH]c2ccccc12)NC(=O)[C@@H](NC(=O)[C@H](CCCCN)NC(=O)[C@H](Cc1ccccc1)NC(=O)[C@@H](N)CCCN=C(N)N)[C@@H](C)CC)[C@@H](C)CC)C(C)C)C(C)C)C(=O)N[C@H](C(=O)N[C@@H](CCCCN)C(=O)N[C@@H](C)C(N)=O)[C@@H](C)CC [RFKIWKKIEKVGRNVRDGIIKA] | – | – | – | – | – | 4 µM (≈ 10.6 µg/mL) | 2 µM (≈ 5.31 µg/mL) | 8 µM (≈ 21.2 µg/mL) | 2 µM (≈ 5.31 µg/mL) | 2 µM (≈ 5.31 µg/mL) | ≥ 64 µM | 2 µM (≈ 5.31 µg/mL) | 16 µM (≈ 42.5 µg/mL) | 2 µM (≈ 5.31 µg/mL) | 1 µM (≈ 2.65 µg/mL) | – |
| CC[C@H](C)[C@H](NC(=O)CNC(=O)[C@H](CO)NC(=O)[C@H](CC(C)C)NC(=O)[C@@H](NC(=O)[C@H](CCCN=C(N)N)NC(=O)CNC(=O)[C@@H](NC(=O)[C@H](CC(C)C)NC(=O)[C@@H]1CCCN1C(=O)[C@H](CC(C)C)NC(=O)[C@@H](N)Cc1c[nH]c2ccccc12)[C@@H](C)CC)C(C)C)C(=O)N[C@@H](CC(C)C)C(N)=O [WLPLIGRVLSGIL] | – | – | – | – | – | – | – | – | – | – | – | – | – | – | – | 25.1 µM (≈ 36 µg/mL) |
| CC[C@H](C)[C@H](NC(=O)CNC(=O)[C@H](CC(=O)O)NC(=O)[C@H](CCCN=C(N)N)NC(=O)[C@@H](NC(=O)[C@H](CC(N)=O)NC(=O)[C@H](CCCN=C(N)N)NC(=O)CNC(=O)[C@@H](NC(=O)[C@H](CCCCN)NC(=O)[C@H](CCC(=O)O)NC(=O)[C@@H](NC(=O)[C@H](CCCCN)NC(=O)[C@H](CCCCN)NC(=O)[C@H](Cc1ccccc1)NC(=O)[C@@H](NC(=O)[C@H](CCCCN)NC(=O)[C@H](C)NC(=O)[C@@H](N)CCCN=C(N)N)[C@@H](C)CC)[C@@H](C)CC)C(C)C)C(C)C)C(=O)N[C@H](C(=O)N[C@@H](CCCCN)C(=O)N[C@@H](C)C(N)=O)[C@@H](C)CC [RAKIFKKIEKVGRNVRDGIIKA] | – | – | – | – | – | 8 µM (≈ 20.3 µg/mL) | 4 µM (≈ 10.2 µg/mL) | ≥ 32 µM | 2 µM (≈ 5.08 µg/mL) | 4 µM (≈ 10.2 µg/mL) | ≥ 128 µM | 4 µM (≈ 10.2 µg/mL) | ≥ 32 µM | 2 µM (≈ 5.08 µg/mL) | 2 µM (≈ 5.08 µg/mL) | – |
| CC[C@H](C)[C@H](NC(=O)[C@H](CC(=O)O)NC(=O)[C@H](Cc1ccccc1)NC(=O)[C@H](CC(C)C)NC(=O)CN)C(=O)N[C@H](C(=O)N[C@@H](CCCCN)C(=O)N[C@@H](CCCCN)C(=O)N[C@@H](C)C(=O)N[C@@H](C)C(=O)N[C@@H](CCC(=O)O)C(=O)N[C@@H](CO)C(=O)N[C@@H](Cc1ccccc1)C(N)=O)[C@@H](C)CC [GLFDIIKKAAESF] | 356 µM (≈ 512 µg/mL) | > 356 µM | > 356 µM | 356 µM (≈ 512 µg/mL) | ≥ 89 µM | – | – | – | – | – | – | – | – | – | – | – |
